# Measurements taken from PMC10384246, “Discovery of New Uracil and Thiouracil Derivatives as Potential HDAC Inhibitors” (Pharmaceuticals, 2023).
# Values joined by “and” are separate entries in the source; they are usually repeats but may differ in a detail not shown here. Identical values can stand only once.
# Assays:
# [1] = system: colorectal carcinoma (HCT-116); experiment: MTT anti-proliferative assay, HCT-116; type: cell-based; details: Homo sapiens, HCT-116, read-out: Cytotoxicity IC50 HCT-116
# Procedure: (§1) Sorafenib was used as a reference drug.
# (§2) Anti-proliferative activity activities were tested using MTT assay as described in Supplementary Materials. […]
# (§3) S2.1. In vitro anti-proliferative activities
# (§4) The in vitro antiproliferative activities of all the synthesized compounds against three human tumor cell lines namely, MCF-7 (human breast cancer cell line), HepG2 (human liver […]
# (§5) in the literature, using MTT assay protocol. Sorafenib was used in this test as a positive control.
# (§6) The anti-proliferative activity was assessed quantitatively as follows.
# (§7) Human cancer cell lines were seeded in 96-well plates at a density of 3-8 × 10^3 cells/well.
# (§8) Next, the cells were incubated for 12 h in a 5% CO2 incubator at 37 °C. Then, for each well, the growth medium was exchanged with 0.1 ml of fresh medium containing graded concentrations of the test compounds or equal DMSO. Then 10 μl MTT solution ([…]) was added to each well, and the cells were incubated for additional 4 h. The crystals of MTT-formazan were dissolved in 100 μl of DMSO; the absorbance of each well was measured at 490 nm using an automatic ELISA reader system (TECAN, CHE). The IC50 values were calculated using the nonlinear regression fitting models (Graph Pad, Prism Version 5). The data represented the mean of three independent experiments in triplicate and were expressed as means ± SD. The IC50 value was […]
# (§9) defined as the concentration at which 50% of the cells could survive. […]
# [2] = system: MCF-7 (human breast cancer cell line); experiment: MTT anti-proliferative assay, MCF-7; type: cell-based; details: MCF7, MCF-7, mean of at least three experiments, read-out: Cytotoxicity IC50 MCF-7
# Procedure: as §1, §2, §3, §4, §5, §6, §7, §8, §9
# [3] = system: HepG2 (human liver carcinoma cell line); experiment: MTT anti-proliferative assay, HepG2; type: cell-based; details: HepG2, mean of at least three experiments, read-out: Cytotoxicity IC50 HepG-2
# Procedure: as §1, §2, §3, §4, §5, §6, §7, §8, §9
# HDAC4 = HDAC4 (Homo sapiens, UniProt P56524); experiment: In vitro HDAC4 inhibitory assay; type: biochemical
# Sequence of HDAC4 (P56524 whole entry): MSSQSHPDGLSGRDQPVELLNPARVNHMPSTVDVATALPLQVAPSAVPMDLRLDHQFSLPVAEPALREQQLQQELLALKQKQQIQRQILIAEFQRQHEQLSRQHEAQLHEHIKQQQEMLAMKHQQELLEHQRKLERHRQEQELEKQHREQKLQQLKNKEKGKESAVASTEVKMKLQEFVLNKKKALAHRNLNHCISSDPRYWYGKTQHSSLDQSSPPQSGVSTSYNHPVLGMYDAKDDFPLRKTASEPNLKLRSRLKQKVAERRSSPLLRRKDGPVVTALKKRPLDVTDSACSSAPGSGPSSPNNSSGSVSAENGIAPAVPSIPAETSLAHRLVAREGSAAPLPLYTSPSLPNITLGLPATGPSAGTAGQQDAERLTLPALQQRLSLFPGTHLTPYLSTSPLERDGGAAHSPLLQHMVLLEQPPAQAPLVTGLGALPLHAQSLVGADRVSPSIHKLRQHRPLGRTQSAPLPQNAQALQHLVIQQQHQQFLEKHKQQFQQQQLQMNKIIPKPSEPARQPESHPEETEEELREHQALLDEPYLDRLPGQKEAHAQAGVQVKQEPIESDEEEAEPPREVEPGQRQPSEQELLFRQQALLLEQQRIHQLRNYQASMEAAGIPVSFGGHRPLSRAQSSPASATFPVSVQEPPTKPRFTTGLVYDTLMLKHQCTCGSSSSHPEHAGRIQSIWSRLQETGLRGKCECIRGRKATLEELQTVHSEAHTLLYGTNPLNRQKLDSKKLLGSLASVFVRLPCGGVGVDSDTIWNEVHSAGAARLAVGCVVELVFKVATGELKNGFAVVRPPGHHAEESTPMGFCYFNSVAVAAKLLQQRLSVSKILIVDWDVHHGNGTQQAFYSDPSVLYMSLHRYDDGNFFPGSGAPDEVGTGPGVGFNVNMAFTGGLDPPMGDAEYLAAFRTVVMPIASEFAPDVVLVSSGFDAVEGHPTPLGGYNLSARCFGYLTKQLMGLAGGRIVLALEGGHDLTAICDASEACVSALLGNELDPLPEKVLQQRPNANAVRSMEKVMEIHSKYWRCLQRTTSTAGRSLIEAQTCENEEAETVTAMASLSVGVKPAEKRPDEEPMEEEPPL
# HDAC1 = HDAC1 (Homo sapiens, UniProt Q13547); experiment: In vitro HDAC1 inhibitory assay; type: biochemical
# Sequence of HDAC1 (Q13547 whole entry): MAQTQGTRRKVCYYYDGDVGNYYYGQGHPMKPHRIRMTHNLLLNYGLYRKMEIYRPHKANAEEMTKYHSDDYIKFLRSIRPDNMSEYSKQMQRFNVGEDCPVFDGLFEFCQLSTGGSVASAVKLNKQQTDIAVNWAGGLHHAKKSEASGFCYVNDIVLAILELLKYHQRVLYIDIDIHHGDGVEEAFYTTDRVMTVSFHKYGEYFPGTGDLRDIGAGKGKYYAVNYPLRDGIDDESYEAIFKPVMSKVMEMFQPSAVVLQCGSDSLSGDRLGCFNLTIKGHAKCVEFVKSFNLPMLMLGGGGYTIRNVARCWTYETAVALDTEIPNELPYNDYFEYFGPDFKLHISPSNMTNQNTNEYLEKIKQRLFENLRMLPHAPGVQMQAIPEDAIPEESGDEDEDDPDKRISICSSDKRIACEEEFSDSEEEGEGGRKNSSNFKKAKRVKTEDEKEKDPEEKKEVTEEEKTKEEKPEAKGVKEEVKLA
SMILES,melting point [°C],IC50 (HDAC4) [µM],IC50 (HDAC1),IC50 [1] [µM],IC50 [2] [µM],IC50 [3] [µM]
"CCn1c(N)c(C(c2ccc(Cl)cc2)c2c(N)n(CC)c(=S)[nH]c2=O)c(=O)[nH]c1=S [Compound 5c, 5,5′-((4-Chlorophenyl)methylene)bis(6-amino-1-ethyl-2-thioxo-2,3-dihydropyrimidin-4(1H)-one)]",> 300,–,–,97 ± 1.2,77 ± 2.3,89 ± 2.4
"CCCn1c2c(c(=O)[nH]c1=O)Cc1c(n(CCC)c(=O)[nH]c1=O)N2 [Compound 6d, 1,9-Dipropyl-5,10-dihydropyrido[2,3-d:6,5-d′]dipyrimidine-2,4,6,8 (1H,3H,7H,9H)-tetraone]",–,–,–,361 ± 2,413 ± 1.3,168 ± 1.5
"CNC(=O)c1cc(Oc2ccc(NC(=O)Nc3ccc(Cl)c(C(F)(F)F)c3)cc2)ccn1 [Sorafenib, reference compound]",–,–,–,177 ± 0.9,141 ± 3,17 ± 2.3
"CCn1c(N)c(C(c2ccccc2)c2c(N)n(CC)c(=S)[nH]c2=O)c(=O)[nH]c1=S [Compound 5a, 5,5′-(Phenylmethylene)bis(6-amino-1-ethyl-2-thioxo-2,3-dihydropyrimidin-4(1H)-one)]",> 300,12.2,3.11 µM,88 ± 2.4,11 ± 1.6,39 ± 2.5
"CCn1c(N)c(C(c2ccc(C)cc2)c2c(N)n(CC)c(=S)[nH]c2=O)c(=O)[nH]c1=S [Compound 5b, 5,5′-(p-Tolylmethylene)bis(6-amino-1-ethyl-2-thioxo-2,3-dihydropyrimidin-4(1H)-one)]",239 to 240,18,2.27 µM,21 ± 2.4,55 ± 2.8,51 ± 4
"CCn1c(N)c(C(c2ccc(Cl)cc2Cl)c2c(N)n(CC)c(=S)[nH]c2=O)c(=O)[nH]c1=S [Compound 5d, 5,5′-((2,4-Dichlorophenyl)methylene)bis(6-amino-1-ethyl-2-thioxo-2,3-dihydropyrimidin-4(1H)-one)]",272 to 273,–,–,281 ± 2.1,62 ± 2.1,40 ± 2.7
"CCCn1c(N)c(Cc2c(N)n(CCC)c(=O)[nH]c2=O)c(=O)[nH]c1=O [Compound 5h, 5,5′-Methylenebis(6-amino-1-propylpyrimidine-2,4(1H,3H)-dione)]",–,–,–,91 ± 1.9,88 ± 2.5,52 ± 3.2
"CCn1c(N)c(C(c2ccc(OC)cc2)c2c(N)n(CC)c(=S)[nH]c2=O)c(=O)[nH]c1=S [Compound 5e, 5,5′-((4-Methoxyphenyl)methylene)bis(6-amino-1-ethyl-2-thioxo-2,3-dihydropyrimidin-4(1H)-one)]",260 to 261,–,–,90 ± 3,60 ± 0.49,42 ± 2

# Continued, in another order:
melting point [°C],IC50 (HDAC4) [µM],IC50 (HDAC1),SMILES,IC50 [1] [µM],IC50 [2] [µM],IC50 [3] [µM]
255 to 256,–,–,"CCn1c2c(c(=O)[nH]c1=S)C(c1ccccc1)c1c(n(CC)c(=S)[nH]c1=O)N2 [Compound 6a, 1,9-Diethyl-5-phenyl-2,8-dithioxo-2,3,5,8,9,10-hexahydropyrido[2,3-d:6,5-d′]dipyrimidine-4,6(1H,7H)-dione]",291 ± 3.5,333 ± 2.9,220 ± 3
286 to 287,–,–,"CCCn1c(N)c(C(c2ccc(C)cc2)c2c(N)n(CCC)c(=O)[nH]c2=O)c(=O)[nH]c1=O [Compound 5j, 5,5′-(p-Tolylmethylene)bis(6-amino-1-propylpyrimidine-2,4(1H,3H)-dione)]",400 ± 2.4,71 ± 2,38 ± 1.8
216 to 217,–,–,"CCn1c(=S)[nH]c(=O)c2c(-c3cccs3)c3c(=O)[nH]c(=S)n(CC)c3nc21 [Compound 7c, 1,9-Diethyl-5-(thiophen-2-yl)-2,8-dithioxo-2,3,8,9-tetrahydropyrido[2,3-d:6,5-d′]dipyrimidine-4,6(1H,7H)-dione]",243 ± 2.2,450 ± 2.2,221 ± 2.5
294 to 295,19.5,0.342 µM and 0.352 µM,"CCCn1c(N)c(C(c2ccccc2)c2c(N)n(CCC)c(=O)[nH]c2=O)c(=O)[nH]c1=O [Compound 5i, 5,5′-(Phenylmethylene)bis(6-amino-1-propylpyrimidine-2,4(1H,3H)-dione)]",64 ± 2.1,261 ± 2.5,4 ± 1
180 to 181,–,–,"CCCn1c2c(c(=O)[nH]c1=O)C(c1ccc(OC)cc1)c1c(n(CCC)c(=O)[nH]c1=O)N2 [Compound 6c, 5-(4-Methoxyphenyl)-1,9-dipropyl-5,10-dihydropyrido[2,3-d:6,5-d′]dipyrimidine-2,4,6,8(1H,3H,7H,9H)-tetraone]",466 ± 4.6,435 ± 4.3,114 ± 2.2
271 to 272,–,–,"CCn1c(N)c(C(c2cccs2)c2c(N)n(CC)c(=S)[nH]c2=O)c(=O)[nH]c1=S [Compound 5g, 5,5′-(Thiophen-2-ylmethylene)bis(6-amino-1-ethyl-2-thioxo-2,3-dihydropyrimidin-4(1H)-one)]",68 ± 1.8,21 ± 2.2,33 ± 3.8
289 to 290,–,–,"CCCn1c(N)c(C(c2ccc(OC)cc2)c2c(N)n(CCC)c(=O)[nH]c2=O)c(=O)[nH]c1=O [Compound 5l, 5,5′-((4-Methoxyphenyl)methylene)bis(6-amino-1-propylpyrimidine-2,4(1H,3H)-dione)]",83 ± 1.9,381 ± 1.5,31 ± 2
285 to 286,13,0.464 µM,"CCCn1c(N)c(C(c2ccc(Cl)cc2Cl)c2c(N)n(CCC)c(=O)[nH]c2=O)c(=O)[nH]c1=O [Compound 5k, 5,5′-((2,4-Dichlorophenyl)methylene)bis(6-amino-1-propylpyrimidine-2,4(1H,3H)-dione)]",80 ± 2.6,242 ± 2,5 ± 2
221,–,–,"CCn1c(=S)[nH]c(=O)c2c(-c3ccc(OC)cc3)c3c(=O)[nH]c(=S)n(CC)c3nc21 [Compound 7b, 1,9-Diethyl-5-(4-methoxyphenyl)-2,8-dithioxo-2,3,8,9-tetrahydropyrido[2,3-d:6,5-d′]dipyrimidine-4,6(1H,7H)-dione]",301 ± 3.4,871 ± 3.2,173 ± 4.5
251 to 252,–,–,"CCn1c2c(c(=O)[nH]c1=S)C(c1ccc([N+](=O)[O-])cc1)c1c(n(CC)c(=S)[nH]c1=O)N2 [Compound 6b, 1,9-Diethyl-5-(4-nitrophenyl)-2,8-dithioxo-2,3,5,8,9,10-hexahydropyrido[2,3-d:6,5-d′]dipyrimidine-4,6(1H,7H)-dione]",299 ± 2,577 ± 20,184 ± 3.7
274 to 275,12.2,4 µM,"CCn1c(N)c(C(c2ccc([N+](=O)[O-])cc2)c2c(N)n(CC)c(=S)[nH]c2=O)c(=O)[nH]c1=S [Compound 5f, 5,5′-((4-Nitrophenyl)methylene)bis(6-amino-1-ethyl-2-thioxo-2,3-dihydropyrimidin-4(1H)-one)]",71 ± 2.1,9.3 ± 3.4,49 ± 0.17
224 to 225,–,–,"CCn1c(=S)[nH]c(=O)c2c(-c3ccc(Cl)cc3)c3c(=O)[nH]c(=S)n(CC)c3nc21 [Compound 7a, 5-(4-Chlorophenyl)-1,9-diethyl-2,8-dithioxo-2,3,8,9-tetrahydropyrido[2,3-d:6,5-d′]dipyrimidine-4,6(1H,7H)-dione]",361 ± 1.9,472 ± 3.2,189 ± 4.8
